SMILES strings stand for the structures.

As for `CCCCCC(C)CCC` (stereo not given) [4-methylnonane], the flash point came to 38 °C.
On to `CCCCC(C)CCC` (stereo not given) [4-methyloctane], for which the flash point worked out at 22 °C.
The figure for `CC(C)CCC(=O)O` [4-methylpentanoicacid] is 97 °C; for `C=Cc1ccc(C)cc1` [4-methylstyrene] it is 46 °C; for `CCCCCC(=O)CCC` [4-nonanone] it is 62 °C.
On to `CCCC#CCCCC` [4-nonyne], for which the flash point was 35 °C.
The figure for `Cc1ccncc1` [4-picoline] is 38 °C; for `CCCC1CCC(=O)CC1` [4-propylcyclohexanone] it is 86 °C.
The figure for `CSCCC=O` [4-thiapentanal] is 61 °C.
In the case of `CCCCCCCC(=O)CCC` [4-undecanone], the flash point worked out at 92 °C.
Turning to `C#CCCCCl` [5-chloro-1-pentyne], the flash point worked out at 15 °C.
The figure for `C=CCCC(C)C` [5-methyl-1-hexene] is -10 °C.
With `CCC(=O)CC(C)CC` (stereo not given) [5-methyl-3-heptanone], the flash point came out at 43 °C.
Consider `CCCCC(C)CCCC` [5-methylnonane], for which the flash point worked out at 37 °C.
The figure for `CCCCC(=O)CCCC` [5-nonanone] is 60 °C; for `CCCCCC(=O)CCCCC` [6-undecanone] it is 88 °C.
Consider `C=CCCCCC(C)C` [7-methyl-1-octene], for which the flash point was 18 °C.
In turn, `C=CCCCCCCCCO` [9-decen-1-ol] had a flash point of 119 °C.
In the case of `CCCCCCC(C)c1ccccc1` (stereo not given) [(1-methylheptyl)benzene] it was 100 °C.
In the case of `CCCNCCO` [(2-hydroxyethyl)propylamine] it was 78 °C; in that of `CCN(CC)c1ccccc1` [N,N-diethylaniline], 88 °C; in that of `CCN(C=O)CC` [N,N-diethylformamide], 65 °C.
The figure for `CC(C)N(C=O)C(C)C` [N,N-diisopropylformamide] is 75 °C; for `CN(C)CCCN` [N,N-dimethyl-1,3-propanediamine] it is 32 °C.
Regarding `CC(=O)N(C)C` [N,N-dimethylacetamide], the flash point is 66 °C.
With `CN(C)c1ccccc1` [N,N-dimethylaniline], the flash point was 75 °C.
Consider `CCCCNC(C)=O` [N-butylacetamide], for which the flash point was found to be 115 °C.
The figure for `CCCCNc1ccccc1` [N-butylaniline] is 107 °C; for `CCN(C)CC` [N-ethyl-N-methylethanamine] it is -23 °C.
The figure for `CCNC(C)=O` [N-ethylacetamide] is 106 °C; for `CCNC1CCCCC1` [N-ethylcyclohexanamine] it is 45 °C; for `CN(CCO)CCO` [N-methyldiethanolamine] it is 137 °C.
The figure for `CC(C)(C)Nc1ccccc1` [N-tert-butylaniline] is 88 °C; for `CC(=O)OC(C)=O` [aceticanhydride] it is 49 °C; for `C=CC=O` [acrolein] it is -19 °C.
The molecule `C=CC(=O)O` [acrylicacid] showed a flash point of 54 °C.
`C=CC#N` [acrylonitrile] came in with a flash point of -5 °C.
`C=CCO` [allylalcohol] registered a flash point of 22 °C.
In the case of `C=CCC1CCCC1` [allylcyclopentane] it was 12 °C.
The figure for `C=CCOCC` [allylethylether] is -20 °C; for `C=CCSCC` [allylethylsulfide] it is 16 °C.
`C=CCOC(=O)C(=C)C` [allylmethacrylate] had a flash point of 37 °C.
The figure for `C=CCOC(=O)CC` [allylpropanoate] is 25 °C; for `C=CCOCCC` [allylpropylether] it is -5 °C.
The figure for `OCc1ccccc1` [benzylalcohol] is 93 °C; for `CCCC(=O)OCc1ccccc1` [benzylbutanoate] it is 107 °C; for `N#CCc1ccccc1` [benzylcyanide] it is 101 °C.
The figure for `CCOCc1ccccc1` [benzylethylether] is 59 °C; for `ICc1ccccc1` [benzyliodide] it is 97 °C.
`SCc1ccccc1` [benzylmercaptan] yielded a flash point of 70 °C.
As for `C1CCC(C2CCCCC2)CC1` [bicyclohexyl], the flash point came to 92 °C.
The figure for `BrC1CCCC1` [bromocyclopentane] is 35 °C.
The figure for `CCCC(=O)OC(=O)CCC` [butanoicanhydride] is 82 °C; for `C=CC(=O)OCCCC` [butylacrylate] it is 37 °C.
In the case of `CCCCN` [butylamine] it was -7 °C.
On to `CCCCc1ccccc1` [butylbenzene], for which the flash point came to 50 °C.
`CCCCOC(=O)c1ccccc1` [butylbenzoate] displayed a flash point of 107 °C.
The figure for `CCCCOC(=O)CCC` [butylbutanoate] is 49 °C.
In the case of `CCCCC1CCCCC1` [butylcyclohexane] it was 48 °C; in that of `CCCCOCC` [butylethylether], -5 °C.
The figure for `C=C(C)C(=O)OCCCC` [butylmethacrylate] is 49 °C.
Consider `CSCCl` [chloromethylmethylsulfide], for which the flash point came out at 17 °C.
In the case of `C[C@@H]1CCCC[C@@H]1C` [cis-1,2-dimethylcyclohexane] it was 12 °C; in that of `C[C@@H]1CCC[C@@H]1C` [cis-1,2-dimethylcyclopentane], -4 °C; in that of `C[C@@H]1CCC[C@H](C)C1` [cis-1,3-dimethylcyclohexane], 6 °C.
In turn, `C/C=C\CC` [cis-2-pentene] returned a flash point of -46 °C.
In the case of `CC/C=C\CC` [cis-3-hexene] it was -25 °C; in that of `CC/C=C\CCCC` [cis-3-octene], 14 °C.
In the case of `C/C=C\C(C)C` [cis-4-methyl-2-pentene] it was -33 °C; in that of `CC(C)c1ccccc1` [cumene], 31 °C.
As for `O=C1CCC1` [cyclobutanone], the flash point turned out to be 10 °C.
In turn, `OC1CCCCCC1` [cycloheptanol] registered a flash point of 71 °C.
The figure for `SC1CCCCC1` [cyclohexanethiol] is 41 °C.
The figure for `C=CC(=O)OC1CCCCC1` [cyclohexylacrylate] is 68 °C; for `c1ccc(C2CCCCC2)cc1` [cyclohexylbenzene] it is 98 °C.
In the case of `COC1CCCCC1` [cyclohexylmethylether] it was 21 °C.
`C1CCCCCCC1` [cyclooctane] had a flash point of 28 °C.
The figure for `OC1CCCCCCC1` [cyclooctanol] is 88 °C; for `C1CCCC1` [cyclopentane] it is -37 °C; for `O=CC1CCCC1` [cyclopentanecarboxaldehyde] it is 28 °C.
In the case of `SC1CCCC1` [cyclopentanethiol] it was 25 °C; in that of `O=C1CCCC1` [cyclopentanone], 26 °C.
Molecule `NC1CCCC1` [cyclopentylamine] displayed a flash point of 12 °C.
For the molecule `OCC1CCCC1` [cyclopentylmethanol], the flash point was found to be 62 °C.
On to `N#CC1CC1` [cyclopropanecarbonitrile], for which the flash point was found to be 32 °C.
The figure for `CC(=O)C1CC1` [cyclopropylmethylketone] is 13 °C; for `CCCCCCCCCCOC=O` [decylformate] it is 100 °C.
In the case of `CCC(C)NC(C)CC` (stereo not given) [di-sec-butylamine] it was 24 °C; in that of `CCC(C)OC(C)CC` (stereo not given) [di-sec-butylether], 15 °C.
In the case of `CC(C)(C)SSC(C)(C)C` [di-tert-butyldisulfide] it was 67 °C.
The molecule `C=CCSCC=C` [diallylsulfide] returned a flash point of 23 °C.
The figure for `CCCCNCCCC` [dibutylamine] is 47 °C; for `CCCCSSCCCC` [dibutyldisulfide] it is 93 °C; for `CCCCSCCCC` [dibutylsulfide] it is 60 °C.
In the case of `CCNCC` [diethylamine] it was -23 °C; in that of `OCCOCCO` [diethyleneglycol], 124 °C.
In the case of `CCOC(=O)c1ccccc1C(=O)OCC` [diethylphthalate] it was 160 °C; in that of `CC(C)CCOCCC(C)C` [diisopentylether], 46 °C.
In the case of `CC(C)NC(C)C` [diisopropylamine], the flash point was -7 °C.
Consider `COC(=O)OC` [dimethylcarbonate], for which the flash point was found to be 14 °C.
The figure for `CSSC` [dimethyldisulfide] is 10 °C.
The figure for `COC(=O)c1ccccc1C(=O)OC` [dimethylphthalate] is 150 °C.
In the case of `CSC` [dimethylsulfide] it was -36 °C.
`c1ccc(Oc2ccccc2)cc1` [diphenylether] came in with a flash point of 115 °C.
In the case of `CCCSSCCC` [dipropyldisulfide] it was 66 °C; in that of `CCCCCCCCCCCCOC(C)=O` [dodecylacetate], 120 °C.
For `CCOC(C)=O` [ethylacetate], the flash point was -4 °C.
In the case of `C=CC(=O)OCC` [ethylacrylate] it was 8 °C; in that of `CCC1CCCCC1` [ethylcyclohexane], 18 °C; in that of `CCC1CCCC1` [ethylcyclopentane], -4 °C.

The record behind these values is a flash point compilation (Sun et al. 2020).
